Measured values published in US9816074B2, “Methods and compositions for modulating nuclease-mediated genome engineering in hematopoietic stem cells” (Sangamo BioSciences, Inc., priority 2014, dated 2017).
Like-named read-outs stand apart in the source and are kept apart here.

What was measured:
Format in all cases: cell-based
Human mPB CD34+ cells [1] = experiment: Flow cytometry of HSPC multipotency markers (CD34, CD133, CD90, CD49f, CD166, CD38, CD45RA); settings: for CD90 expression (FIG. 3A): dmPGE2 10 μM, SR1 1 μM, 17 days, addition 1 day post thawing; for CD49f expression (FIG. 3C) / CD133 expression (FIG. 3B): compared to controls, 17 day culture; for CD34 expression compared to controls (FIG. 3D): for the duration of the experiment (17 days); for CD90 expression (percent of CD90+ cells, FIG. 2A): nicotinamide 2.5 mM, TEPA 5 μM, addition at 1 day post thawing, vs control
Protocol: Human mPB CD34+ cells were cultured ex vivo in CC110 media for 3 days with or without VPA, nicotinamide or TEPA. Various cell surface markers are enriched on CD34+ subpopulations that contain true LT-HSCs. Measurement of such cell surface markers can therefore be used as a proxy for the number of LT-HSCs in the culture. In particular, CD90, CD133, CD49f, CD38, and CD166 can be used to assay LT-HSC number (Notta et al. (2011) Science 333(6039):218-21; Chitteti et al. (2014) Blood 124(4):519-29), with the LT-HSCs generally residing in the CD90+CD133+CD49f+CD38-low CD166+ pool. Accordingly, cells were stained using fluorescently-tagged antibodies against the HSPC multipotency markers CD34 (PE-Cy7), CD133 (PE), CD90 (APC), and CD49f (PerCP) and analyzed by flow cytometry.
Human mPB CD34+ cells were cultured ex vivo in CC110 media for 17 days. Cells were then stained using fluorescently-tagged antibodies against the HSPC multipotency markers CD34 (PE-Cy7), CD133 (PE), CD90 (APC), and CD49f (PerCP) and analyzed by flow cytometry as described above.
Human mPB-derived cells were cultured as described above in the presence or absence of VPA (1.25 mM) and 5 mM lithium chloride (Li) and cells assayed for primitive cell surface markers as described above.
CD34+ cells were cultured ex vivo in CC110 media with 100 ng/mL IL-6 for 8 days in the presence or absence of VPA, lithium, nucleases and donors. VPA and Li were added prior to nucleases and/or donors (which can be added in any order). Briefly, CD34+ cells were thawed and cultured for approximately […] before addition of VPA and Li and cultured again (e.g., 1-2 days) before addition of a donor. Nucleases (e.g., ZFN mRNA) were added 0.5 to 1 day later and VPA/Li washed out at the same time. After at least a day, cells were then stained using fluorescently-tagged antibodies against the HSPC multipotency markers CD34 (PE-Cy7), CD133 (PE), CD90 (APC), and CD49f (PerCP) and analyzed by flow cytometry.
CD34+ cells were cultured ex vivo in CC110 media as described above for approximately 6 days in the presence or absence of VPA, lithium, nucleases and donors. VPA and Li were added after to nucleases and/or donors (which can be added in any order). Briefly, CD34+ cells were thawed and cultured for approximately 2-3 days before addition of a donor. Nucleases (e.g., ZFN mRNA) were added 0.5 to 1 day after transfection with the donor. The donor was a SA-IL2RG partial corrective cDNA transgene at IL2RG intron 1 and the zinc-finger nucleases (ZFN) were SBS #s 44271/44298 delivered by BTX electroporation. VPA/Li was added 1 day after addition of the ZFN mRNA. After approximately 3 days, cells were then stained using fluorescently-tagged antibodies against the HSPC multipotency markers CD34 (PE-Cy7), CD133 (PE), CD90 (APC), and CD49f (PerCP) and analyzed by flow cytometry.
(§1) Human mPB CD34+ cells were cultured ex vivo in CC110 media with or without 100 ng/mL IL-6 in the presence of VPA (1.25 mM or 2.5 mM) and 5 mM lithium chloride (Li) for 4 (blue lines—added at 4 days post thawing of the cells) or 7 days (red line—added at 1 day post thawing).
The presence of IL-6 was capable of enhancing the expression of CD49f with extended culture. […] In a further experiment, human mPB CD34+ cells were cultured ex vivo in CC110 media in the presence of VPA (1.25 mM) plus LiCl (5 mM) with or without 100 ng/mL IL-6 for 7 days.
After 7 days in culture cells were stained using fluorescently-tagged antibodies against the HSPC multipotency marker CD166 (PE) and analyzed by flow cytometry. VPA+Li increased the overall fraction of CD166+ cells.
Human mPB CD34+ cells were cultured ex vivo in CC110 media with 100 ng/mL IL-6 in the presence or absence of VPA (1.25 mM) plus LiCl (5 mM) for 6 days.

Human mPB CD34+ cells [2] = experiment: Cell viability by flow cytometry in the presence of propidium iodide
Protocol: (§2) No change in culture cell density was seen after VPA addition compared to controls in genome modified mPB HSPCs (FIG. 6F).
as §1

Human mPB CD34+ cells [3] = experiment: Methylcellulose assays (colony forming units) on CD34+ cell cultures
Human mPB CD34+ cells [4] = experiment: Cell density / proliferative capacity in culture; settings: for cell density / growth (FIG. 3F): extended culture, 17 days
Source text: as §2
The presence of IL-6 was capable of enhancing the expression of CD49f with extended culture. […]

CD34+ cells = experiment: CRISPR/Cas nuclease modification with VPA (as Example 3, CRISPR/Cas in place of ZFNs); settings: introduced before, concurrently and/or after the CRISPR/Cas nuclease systems
Protocol: Experiments are conducted as described in Example 3 using CRISPR/Cas nucleases in place of ZFNs (e.g., specific for any gene such as IL2, HPRT, etc.), with and without donors.

[5] = 14 days of in vitro differentiation
[6] = VPA 1.25 mM added 1 day post thawing
[7] = compared to controls after 14 days of in vitro differentiation

## CC(C)n1cnc2c(NCCc3ccc(O)cc3)nc(-c3csc4ccccc34)nc21 [SR1, StemRegenin 1]
Human mPB CD34+ cells [1]; VPA 1.25 mM, CC110 media
  CD90 expression (FIG. 3A): No effect
Human mPB CD34+ cells [1]
  CD49f expression (FIG. 3C): increased expression compared to both controls and VPA after 17 days in culture
  CD133 expression (FIG. 3B): decreased expression
  CD34 expression compared to controls (FIG. 3D): retained elevated CD34 expression
Human mPB CD34+ cells [1]; extended culture
  CD34 expression compared to VPA (FIG. 3D): higher expression
Human mPB CD34+ cells [2]
  cell viability (FIG. 3E): no effect on cell viability
Human mPB CD34+ cells [3]; [5]
  erythroid burst-forming units (BFU-E): increased
  granulocyte and megakaryocyte colony-forming units (CFU-GM): increased
Human mPB CD34+ cells [4]
  cell density / growth (FIG. 3F): slight growth advantage

## IL-6: cytokine added to CC110 media at 100 ng/mL
Human mPB CD34+ cells [1]; 100 ng/mL IL-6
  VPA-increased HSC multipotency marker expression in the presence of IL-6: enhanced
Human mPB CD34+ cells [1]; 100 ng/mL IL-6, extended culture with VPA+Li
  expression of CD49f in the presence of IL-6: enhancing
Human mPB CD34+ cells [4]; 100 ng/mL IL-6, VPA+Li cultures
  overall cell density with or without IL-6: higher overall cell density in the absence of IL-6

## CCCC(CCC)C(=O)O [VPA, valproic acid]
Human mPB CD34+ cells [1]
  level of CD90 expression, VPA added at day 1 vs day 4: higher level
  CD49f expression (FIG. 3C): increased CD49f expression for up to 15 days
  CD133 expression (FIG. 3B): increased
  CD34 expression compared to controls (FIG. 3D): retained elevated CD34 expression
Human mPB CD34+ cells [1]; Example 3C
  marker expression after VPA washout and genome modification: retained high CD90, CD34, CD133 and CD49f expression
Human mPB CD34+ cells [1]; VPA 1.25 mM + LiCl 5 mM, 7 days
  CD49f expression compared to controls: increased
Human mPB CD34+ cells [1]; [6]
  time to peak of CD90 expression after addition (FIG. 2A): ≤ 2 days
  time to peak of CD90 expression after addition (FIG. 3A): ≤ 2 days
Human mPB CD34+ cells [1]; VPA 1.25 mM, CC110 media
  CD90 expression (FIG. 3A): dramatically increased
Human mPB CD34+ cells [1]; VPA 1.25 mM
  CD90 expression (percent of CD90+ cells, FIG. 2A): dramatically increased
Human mPB CD34+ cells [1]; VPA 1.25 mM, CC110 media, 3 days, controls 14.4%
  fraction of CD34+CD133+CD90+CD49f+ cells: 85.9%
Human mPB CD34+ cells [1]; VPA 1.25 mM, CC110 media, 3 days, controls 51.7%
  proportion of CD34+CD133+ cells: 93.1%
Human mPB CD34+ cells [1]; VPA + 5 mM Li
  level of CD133, CD90 and CD49f expression, VPA added at day 1 vs day 4: higher level
Human mPB CD34+ cells [1]; addition after extended culture (Example 3B)
  marker expression after VPA washout and genome modification: retained high CD90, CD34, CD133 and CD49f expression
Human mPB CD34+ cells [1]; day 1 vs day 4 addition
  fraction of cells unresponsive to VPA stimulation between days 1 and 4 post thawing (CD133, CD90 and CD49f expression): ~15%
  fraction of cells unresponsive to VPA stimulation between days 1 and 4 post thawing, CD49f: ~15%
  fraction of cells unresponsive to VPA stimulation between days 1 and 4 post thawing, CD90: ~20%
  fraction of cells unresponsive to VPA stimulation between days 1 and 4 post thawing, CD133: ~15%
Human mPB CD34+ cells [1]; extended culture
  CD34 expression, VPA added at day 1 vs day 4 post-thawing: increased CD34 expression
Human mPB CD34+ cells [1]; increasing VPA
  dose dependence of CD49f expression: No significant dose dependence
  dose dependence of CD90 expression: dose dependence
Human mPB CD34+ cells [1]; increasing VPA doses (1.25 mM, 2.5 mM)
  dose dependence of CD34 expression: slight dose dependence
Human mPB CD34+ cells [2]
  cell viability (FIG. 3E): no loss of cell viability
  cell viability after VPA addition compared to controls (FIG. 6E): no increased loss of cell viability
  overall cell viability with VPA: slightly lower viability
  recovery of cell viability following VPA administration: initial delay in recovery
  viability after VPA addition, before genome modification (FIG. 5E): no decrease in viability
  viability after genome modification (FIG. 5E): significant viability loss
  viability after genome modification (FIG. 6E): significant loss of viability
Human mPB CD34+ cells [3]; [7]
  myeloid or erythroid differentiation capacity (FIG. 2C): no significant difference
  myeloid or erythroid differentiation capacity (FIGS. 3G and 3H): no significant difference
Human mPB CD34+ cells [4]
  cell growth, VPA at day 4 compared to day 1: cell growth advantage
  cell density / growth (FIG. 3F): slightly decreased proliferative capacity
Human mPB CD34+ cells [4]; 2.5 mM VPA
  cell growth potential at 2.5 mM VPA: decreased cell growth potential
Human mPB CD34+ cells [4]; Example 6, VPA administration
  initial proliferative capacity: slightly decreased proliferative capacity
  proliferative capacity after 7 days in culture: recovered
Human mPB CD34+ cells [4]; after VPA addition compared to controls, genome modified mPB HSPCs
  culture cell density (FIG. 6F): No change
Human mPB CD34+ cells [4]; lower doses than 2.5 mM
  cell growth at lower doses of VPA: did not affect cell growth as substantially
CD34+ cells
  CRISPR/Cas induced nuclease modification: enhances

## NCCNCCNCCNCCN [TEPA, tetraethylenepentamine]
Human mPB CD34+ cells [1]; VPA 1.25 mM
  CD90 expression (percent of CD90+ cells, FIG. 2A): No effect

## NC(=O)c1cccnc1 [nicotinamide]
Human mPB CD34+ cells [1]; VPA 1.25 mM
  CD90 expression (percent of CD90+ cells, FIG. 2A): No effect

## CCCCC(C)(C)[C@H](O)/C=C/[C@H]1[C@H](O)CC(=O)[C@@H]1C/C=C\CCCC(=O)O [dmPGE2, 16,16-dimethyl Prostaglandin E2]
Human mPB CD34+ cells [1]; VPA 1.25 mM, CC110 media
  CD90 expression (FIG. 3A): No effect
Human mPB CD34+ cells [2]; extended culture, 17 days
  cell viability (FIG. 3E): no effect on cell viability
Human mPB CD34+ cells [4]
  cell density / growth (FIG. 3F): slight growth advantage
